In patent US20260207578A1, “COMPOUND BASED ON SULFUR/OXYGEN SUBSTITUTED GLUTARIMIDE-BASED ISOINDOLINONE SKELETON AND USE THEREOF” (Gluetacs Therapeutics (Shanghai) Co., LTD., priority 2022, published 2026):

Experiments:
IKZF1 = biological target: T1, IKZF1 (Homo sapiens, UniProt Q13422+Q96SW2); test: Western-blot assay, substrate protein in hPBMCs; type: cell-based; settings: hPBMC cells, 24 hours, tested at 50 nM and 500 nM, table does not say which
T1 construct: endogenous in cells; host or cells: human PBMCs (Milecell Biotechnologies)
T1 sequence (Q13422 whole entry): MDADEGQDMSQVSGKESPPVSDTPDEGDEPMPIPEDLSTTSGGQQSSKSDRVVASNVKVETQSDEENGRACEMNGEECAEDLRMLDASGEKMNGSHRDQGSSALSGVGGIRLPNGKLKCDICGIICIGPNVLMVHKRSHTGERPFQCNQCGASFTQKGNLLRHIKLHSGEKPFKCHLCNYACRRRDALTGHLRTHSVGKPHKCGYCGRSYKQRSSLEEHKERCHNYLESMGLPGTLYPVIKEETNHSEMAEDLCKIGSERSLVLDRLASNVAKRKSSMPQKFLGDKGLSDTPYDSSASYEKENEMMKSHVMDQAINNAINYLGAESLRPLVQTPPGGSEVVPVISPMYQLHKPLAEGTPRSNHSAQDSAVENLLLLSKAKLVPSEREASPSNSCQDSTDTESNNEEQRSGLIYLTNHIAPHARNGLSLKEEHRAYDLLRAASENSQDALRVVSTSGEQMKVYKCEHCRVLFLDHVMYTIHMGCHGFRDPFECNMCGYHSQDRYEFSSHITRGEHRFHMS
T1 sequence (Q96SW2 whole entry): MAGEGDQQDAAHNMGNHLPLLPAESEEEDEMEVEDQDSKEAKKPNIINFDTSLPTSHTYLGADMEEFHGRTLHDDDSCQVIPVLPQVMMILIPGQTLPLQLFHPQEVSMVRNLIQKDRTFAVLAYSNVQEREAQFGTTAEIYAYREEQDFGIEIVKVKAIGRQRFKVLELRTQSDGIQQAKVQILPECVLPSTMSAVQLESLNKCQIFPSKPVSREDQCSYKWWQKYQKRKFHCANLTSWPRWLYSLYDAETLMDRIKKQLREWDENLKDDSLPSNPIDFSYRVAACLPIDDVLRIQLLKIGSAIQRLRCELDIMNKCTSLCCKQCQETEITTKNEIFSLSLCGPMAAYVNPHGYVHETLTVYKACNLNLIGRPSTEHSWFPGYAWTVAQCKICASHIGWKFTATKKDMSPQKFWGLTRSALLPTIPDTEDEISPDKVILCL
T1 sequence (Q16531 whole entry partner): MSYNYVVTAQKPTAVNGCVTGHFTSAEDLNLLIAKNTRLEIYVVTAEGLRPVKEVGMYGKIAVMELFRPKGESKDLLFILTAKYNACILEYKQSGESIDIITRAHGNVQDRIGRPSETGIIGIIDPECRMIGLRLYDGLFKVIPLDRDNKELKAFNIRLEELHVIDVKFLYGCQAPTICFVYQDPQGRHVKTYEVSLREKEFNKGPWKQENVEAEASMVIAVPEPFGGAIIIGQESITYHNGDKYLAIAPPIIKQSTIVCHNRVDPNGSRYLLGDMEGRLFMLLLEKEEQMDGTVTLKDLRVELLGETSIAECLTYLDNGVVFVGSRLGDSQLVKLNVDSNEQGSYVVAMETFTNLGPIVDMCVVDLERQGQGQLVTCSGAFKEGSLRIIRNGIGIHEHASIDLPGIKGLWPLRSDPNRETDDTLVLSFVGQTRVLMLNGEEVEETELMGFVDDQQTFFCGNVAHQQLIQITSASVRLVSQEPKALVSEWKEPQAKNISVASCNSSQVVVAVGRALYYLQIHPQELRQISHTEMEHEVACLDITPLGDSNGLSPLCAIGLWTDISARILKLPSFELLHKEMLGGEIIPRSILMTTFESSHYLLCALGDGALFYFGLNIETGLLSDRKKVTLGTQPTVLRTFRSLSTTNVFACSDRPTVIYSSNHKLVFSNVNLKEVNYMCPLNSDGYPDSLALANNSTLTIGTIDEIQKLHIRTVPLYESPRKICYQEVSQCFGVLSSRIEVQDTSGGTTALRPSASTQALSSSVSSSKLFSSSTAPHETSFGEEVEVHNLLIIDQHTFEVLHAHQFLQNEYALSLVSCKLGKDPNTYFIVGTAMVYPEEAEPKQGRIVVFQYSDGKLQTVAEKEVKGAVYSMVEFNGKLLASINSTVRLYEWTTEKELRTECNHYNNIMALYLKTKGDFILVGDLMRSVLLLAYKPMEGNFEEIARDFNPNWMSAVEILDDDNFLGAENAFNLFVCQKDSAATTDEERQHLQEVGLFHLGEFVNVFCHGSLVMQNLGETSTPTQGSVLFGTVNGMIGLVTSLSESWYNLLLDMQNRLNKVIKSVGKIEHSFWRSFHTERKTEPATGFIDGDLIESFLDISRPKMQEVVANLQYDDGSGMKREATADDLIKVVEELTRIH
In short: (§1)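 hPBMCs (1×10^6 cells/mL) exposed 24 h to compound at 50 nM and 500 nM, lysed, and probed by Western blot. Band grayscale normalized to internal control gives % protein remaining versus DMSO; DC50 from concentration-response fit at half DMSO band intensity.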

IKZF3 = biological target: T2, IKZF3 (Homo sapiens, UniProt Q96SW2+Q9UKT9); test: Western-blot assay, substrate protein in hPBMCs; type: cell-based; settings: hPBMC cells, 24 hours, tested at 50 nM and 500 nM, table does not say which
T2 construct: endogenous in cells; host or cells: human PBMCs (Milecell Biotechnologies)
In short: as §1

[1] = biological target: T3, human Cereblon WT GST-tagged protein (Homo sapiens, UniProt Q96SW2); test: CRBN-binding affinity, HTRF (CEREBLON BINDING kit); settings: displacement of Thalidomide-Re reagent, 3 hours at room temperature
T3 construct: purchased CISBIO 64BDCRBNPEH
T3 sequence (Q96SW2 whole entry): as the sequence (Q96SW2 whole entry) above
In short: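 HTRF competition format: compound, GST-tagged wild-type human Cereblon, Thalidomide-Re tracer and GST Eu antibody were combined in PROTAC binding buffer. Binding was derived from emission at 620 nm relative to blank and solvent control wells.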

CK1α = biological target: T4, CK1α (Homo sapiens, UniProt P48729+Q96SW2); test: Western-blot assay, substrate protein in hPBMCs; type: cell-based; settings: hPBMC cells, 24 hours, tested at 50 nM and 500 nM, table does not say which
T4 construct: endogenous in cells; host or cells: human PBMCs (Milecell Biotechnologies)
T4 sequence (P48729 whole entry): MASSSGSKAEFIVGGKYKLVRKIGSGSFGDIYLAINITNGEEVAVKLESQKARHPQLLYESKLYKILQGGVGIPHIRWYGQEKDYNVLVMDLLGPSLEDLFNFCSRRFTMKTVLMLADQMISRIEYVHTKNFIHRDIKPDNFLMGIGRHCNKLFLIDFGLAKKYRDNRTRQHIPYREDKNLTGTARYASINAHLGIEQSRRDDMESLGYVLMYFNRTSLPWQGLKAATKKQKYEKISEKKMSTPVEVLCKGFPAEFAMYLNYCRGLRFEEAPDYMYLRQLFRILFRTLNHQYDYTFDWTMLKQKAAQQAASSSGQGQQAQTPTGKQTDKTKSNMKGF
T4 sequence (Q96SW2 whole entry): as the sequence (Q96SW2 whole entry) above
T4 sequence (Q16531 whole entry partner): as the sequence (Q16531 whole entry partner) above
In short: (§2)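 Protein levels read by Western blot of lysates from human PBMCs (1×10^6 cells/mL) treated 24 h. Percent remaining is target band over loading-control band, normalised to DMSO-treated cells; DC50 is the concentration halving DMSO-control band intensity, estimated by curve fit.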

Wee1 = biological target: T5, Wee1 (Homo sapiens, UniProt P30291+Q96SW2); test: Western-blot assay, substrate protein in hPBMCs; type: cell-based; settings: hPBMC cells, 24 hours, tested at 50 nM and 500 nM, table does not say which
T5 construct: endogenous in cells; host or cells: human PBMCs (Milecell Biotechnologies)
T5 sequence (P30291 whole entry): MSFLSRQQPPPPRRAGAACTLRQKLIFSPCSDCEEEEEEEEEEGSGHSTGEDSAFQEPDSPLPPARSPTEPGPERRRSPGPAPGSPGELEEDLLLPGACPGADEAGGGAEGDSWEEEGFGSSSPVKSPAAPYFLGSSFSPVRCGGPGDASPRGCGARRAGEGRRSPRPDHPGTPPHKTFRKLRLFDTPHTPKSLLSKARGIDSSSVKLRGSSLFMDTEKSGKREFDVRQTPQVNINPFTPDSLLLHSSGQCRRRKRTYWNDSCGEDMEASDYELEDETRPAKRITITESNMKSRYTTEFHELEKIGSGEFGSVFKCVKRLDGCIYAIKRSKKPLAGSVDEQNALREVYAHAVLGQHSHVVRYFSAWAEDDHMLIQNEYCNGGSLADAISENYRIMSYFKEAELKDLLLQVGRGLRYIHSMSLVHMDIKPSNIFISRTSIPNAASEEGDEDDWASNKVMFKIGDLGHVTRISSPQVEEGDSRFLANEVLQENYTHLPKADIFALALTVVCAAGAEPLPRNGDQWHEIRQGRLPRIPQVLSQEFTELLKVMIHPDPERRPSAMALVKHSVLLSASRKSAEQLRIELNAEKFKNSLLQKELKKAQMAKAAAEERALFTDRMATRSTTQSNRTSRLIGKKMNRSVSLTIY
T5 sequence (Q96SW2 whole entry): as the sequence (Q96SW2 whole entry) above
T5 sequence (Q16531 whole entry partner): as the sequence (Q16531 whole entry partner) above
In short: as §2

IKZF2 = biological target: T6, IKZF2 (Homo sapiens, UniProt Q96SW2+Q9UKS7); test: Western-blot assay, substrate protein in hPBMCs; type: cell-based; settings: hPBMC cells, 24 hours, tested at 50 nM and 500 nM, table does not say which
T6 construct: endogenous in cells; host or cells: human PBMCs (Milecell Biotechnologies)
T6 sequence (Q9UKS7 whole entry): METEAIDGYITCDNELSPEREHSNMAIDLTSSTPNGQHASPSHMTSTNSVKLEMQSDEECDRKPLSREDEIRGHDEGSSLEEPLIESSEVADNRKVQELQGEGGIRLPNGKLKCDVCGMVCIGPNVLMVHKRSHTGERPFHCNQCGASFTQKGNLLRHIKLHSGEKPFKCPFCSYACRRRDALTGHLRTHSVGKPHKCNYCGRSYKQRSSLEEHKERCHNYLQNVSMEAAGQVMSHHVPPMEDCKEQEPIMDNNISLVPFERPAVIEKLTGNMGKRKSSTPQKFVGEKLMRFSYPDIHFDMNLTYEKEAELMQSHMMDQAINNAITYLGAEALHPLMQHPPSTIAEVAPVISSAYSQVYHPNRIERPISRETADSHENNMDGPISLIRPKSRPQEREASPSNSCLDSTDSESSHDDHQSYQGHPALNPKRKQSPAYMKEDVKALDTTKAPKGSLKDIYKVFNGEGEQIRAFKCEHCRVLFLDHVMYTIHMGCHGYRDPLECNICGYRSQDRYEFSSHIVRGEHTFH
T6 sequence (Q96SW2 whole entry): as the sequence (Q96SW2 whole entry) above
T6 sequence (Q16531 whole entry partner): as the sequence (Q16531 whole entry partner) above
In short: as §2

GSPT1 = biological target: T7, GSPT1 (Homo sapiens, UniProt P15170+Q96SW2); test: Western-blot assay, substrate protein in hPBMCs; type: cell-based; settings: hPBMC cells, 24 hours, tested at 50 nM and 500 nM, table does not say which
T7 construct: endogenous in cells; host or cells: human PBMCs (Milecell Biotechnologies)
T7 sequence (P15170 whole entry): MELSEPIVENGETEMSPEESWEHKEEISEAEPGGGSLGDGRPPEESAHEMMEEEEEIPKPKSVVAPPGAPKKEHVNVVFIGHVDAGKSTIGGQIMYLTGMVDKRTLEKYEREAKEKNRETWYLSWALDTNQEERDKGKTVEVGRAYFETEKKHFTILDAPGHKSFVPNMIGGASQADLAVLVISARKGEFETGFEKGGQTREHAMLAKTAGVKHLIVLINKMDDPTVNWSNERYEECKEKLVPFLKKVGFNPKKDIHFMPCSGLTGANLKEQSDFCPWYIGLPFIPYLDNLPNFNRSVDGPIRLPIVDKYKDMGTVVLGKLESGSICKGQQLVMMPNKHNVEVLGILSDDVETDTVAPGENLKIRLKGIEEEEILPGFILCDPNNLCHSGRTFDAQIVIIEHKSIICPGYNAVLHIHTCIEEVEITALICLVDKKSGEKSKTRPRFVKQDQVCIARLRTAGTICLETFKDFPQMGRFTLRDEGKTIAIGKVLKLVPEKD
T7 sequence (Q96SW2 whole entry): as the sequence (Q96SW2 whole entry) above
T7 sequence (Q16531 whole entry partner): as the sequence (Q16531 whole entry partner) above
In short: as §2

MV-4-11 = test: Half inhibitory concentration (IC50) against tumor cells, Cell Counting Kit-8; type: cell-based; settings: Homo sapiens, MV4-11, CCK-8, 96 h treatment, read-out: inhibitory activity (IC50, nM) against tumor cells proliferation
Experimental: (§3) The tumor cells used herein were cultured in a cell culture medium listed in table A at 37° C. in an incubator with 5% CO2.
(§4) After the cells were treated with the compounds of the present disclosure for a period of time, the cell viability detection reagent was added to the culture medium for cell viability assessment according to the instructions provided with the CCK-8 kit. […] The growth inhibition of the compounds of the present disclosure on cells was plotted by Prism Graphpad software, and the IC50 values of the compounds of the present disclosure were calculated therefrom.

CCRF-CEM = test: as above; type: cell-based; settings: Homo sapiens, CCK-8, 96 h treatment, read-out: inhibitory activity (IC50, nM) against tumor cells proliferation
Experimental: as §3, §4

CAL-62 = test: as above; type: cell-based; settings: Homo sapiens, CCK-8, 96 h treatment, read-out: inhibitory activity (IC50, nM) against tumor cells proliferation
Experimental: as §3, §4

IC50 [1] [nM] | IC50 (MV-4-11) [nM] | IC50 (CCRF-CEM) [nM] | IC50 (CAL-62) [nM] | Structure (SMILES) | substrate protein remaining % (IKZF1) | substrate protein remaining % (IKZF3) | substrate protein remaining % (CK1α) | substrate protein remaining % (Wee1) | substrate protein remaining % (IKZF2) | substrate protein remaining % (GSPT1)
1000 to 1900 | 500 to 1000 |  |  | CC1(C)CCC(CN2CCC(Oc3ccc4c(c3)CN(C3CCC(=O)NC3=O)C4=O)C2)=C(c2ccc(Cl)cc2)C1 (stereo not shown) [GT-06815, 3-(5-((1-((4′-chloro-5,5-dimethyl-3,4,5,6-tetrahydro-[1,1′-biphenyl]-2-yl)methyl)pyrrolidin-3-yl)oxy)-1-oxoisoindolin-2-yl)piperidine-2,6-dione] | A (0%≤ substrate protein remaining % ≤80%) | A (0%≤ substrate protein remaining % ≤80%) | A (0%≤ substrate protein remaining % ≤80%) | A (0%≤ substrate protein remaining % ≤80%) | A (0%≤ substrate protein remaining % ≤80%) | A (0%≤ substrate protein remaining % ≤80%)
500 to 1000 |  | 500 to 1000 | 100 to 500 | CC1(C)CCC(CN2CCC(Sc3ccc4c(c3)CN(C3CCC(=O)NC3=O)C4=O)CC2)=C(c2ccc(Cl)cc2)C1 (stereo not shown) [GT-03462, 3-(5-((1-((4′-chloro-5,5-dimethyl-3,4,5,6-tetrahydro-[1,1′-biphenyl]-2-yl)methyl)piperidin-4-yl)thio)-1-oxoisoindolin-2-yl)piperidine-2,6-dione] |  |  |  | A (0%≤ substrate protein remaining % ≤80%) |  | A (0%≤ substrate protein remaining % ≤80%)
1000 to 1900 | 100 to 500 |  |  | CC1(C)CCC(CN2CCC3(CCC(Sc4ccc5c(c4)CN(C4CCC(=O)NC4=O)C5=O)CC3)CC2)=C(c2ccc(Cl)cc2)C1 (stereo not shown) [GT-06874, 3-(5-((3-((4′-chloro-5,5-dimethyl-3,4,5,6-tetrahydro-[1,1′-biphenyl]-2-yl)methyl)-3-azaspiro[5.5]undecan-9-yl)thio)-1-oxoisoindolin-2-yl)piperidine-2,6-dione] |  | A (0%≤ substrate protein remaining % ≤80%) | A (0%≤ substrate protein remaining % ≤80%) | A (0%≤ substrate protein remaining % ≤80%) | A (0%≤ substrate protein remaining % ≤80%) | A (0%≤ substrate protein remaining % ≤80%)
< 500 | 500 to 1000 |  |  | O=C1CCC(N2Cc3cc(OC4CC5(CCN(C(c6ccccc6)c6ccccc6)CC5)C4)ccc3C2=O)C(=O)N1 (stereo not shown) [GT-06956, 3-(5-((7-benzhydryl-7-azaspiro[3.5]nonan-2-yl)oxy)-1-oxoisoindolin-2-yl)piperidine-2,6-dione] | A (0%≤ substrate protein remaining % ≤80%) | A (0%≤ substrate protein remaining % ≤80%) | A (0%≤ substrate protein remaining % ≤80%) | A (0%≤ substrate protein remaining % ≤80%) | A (0%≤ substrate protein remaining % ≤80%) | 
< 500 | 50 to 100 |  |  | O=C1CCC(N2Cc3cc(OC4CC5CN(C(c6ccccc6)c6ccccc6)CC5C4)ccc3C2=O)C(=O)N1 (stereo not shown) [GT-06955, 3-(5-((2-benzhydryloctahydro-cyclopenta[c]pyrrol-5-yl)oxy)-1-oxoisoindolin-2-yl)piperidine-2,6-dione] | A (0%≤ substrate protein remaining % ≤80%) |  | A (0%≤ substrate protein remaining % ≤80%) |  | A (0%≤ substrate protein remaining % ≤80%) | 
1000 to 1900 | 10 to 50 |  |  | CC1(C)CCC(CN2CCC3(CC2)CC(Sc2ccc4c(c2)CN(C2CCC(=O)NC2=O)C4=O)C3)=C(c2ccc(Cl)cc2)C1 (stereo not shown) [GT-06873, 3-(5-((7-((4′-chloro-5,5-dimethyl-3,4,5,6-tetrahydro-[1,1′-biphenyl]-2-yl)methyl)-7-azaspiro[3.5]nonan-2-yl)thio)-1-oxoisoindolin-2-yl)piperidine-2,6-dione] | A (0%≤ substrate protein remaining % ≤80%) | A (0%≤ substrate protein remaining % ≤80%) | A (0%≤ substrate protein remaining % ≤80%) | A (0%≤ substrate protein remaining % ≤80%) | A (0%≤ substrate protein remaining % ≤80%) | A (0%≤ substrate protein remaining % ≤80%)
500 to 1000 | 10 to 50 |  |  | O=C1CCC(N2Cc3cc(OC4CCCN(C(c5ccccc5)c5ccccc5)CC4)ccc3C2=O)C(=O)N1 (stereo not shown) [GT-06928, 3-(5-((1-benzhydrylazepan-4-yl)oxy)-1-oxoisoindolin-2-yl)piperidine-2,6-dione] |  |  |  | A (0%≤ substrate protein remaining % ≤80%) | A (0%≤ substrate protein remaining % ≤80%) | 
500 to 1000 | 100 to 500 |  |  | CC1(C)CCC(C(=O)N2CCC3(CC2)CC(Sc2ccc4c(c2)CN(C2CCC(=O)NC2=O)C4=O)C3)=C(c2ccc(Cl)cc2)C1 (stereo not shown) [GT-06918, 3-(5-((7-(4′-chloro-5,5-dimethyl-3,4,5,6-tetrahydro-[1,1′-biphenyl]-2-carbonyl)-7-azaspiro[3.5]nonan-2-yl)thio)-1-oxoisoindolin-2-yl)piperidine-2,6-dione] | A (0%≤ substrate protein remaining % ≤80%) | A (0%≤ substrate protein remaining % ≤80%) |  | A (0%≤ substrate protein remaining % ≤80%) | A (0%≤ substrate protein remaining % ≤80%) | 
 | 100 to 500 | 500 to 1000 |  | O=C1CCC(N2Cc3cc(SC4CCN(Cc5ccccc5-c5ccc(Cl)cc5)CC4(F)F)ccc3C2=O)C(=O)N1 (stereo not shown) [GT-06924, 3-(5-((1-((4′-chloro-[1,1′-biphenyl]-2-yl)methyl)-3,3-difluoropiperidin-4-yl)thio)-1-oxoisoindolin-2-yl)piperidine-2,6-dione] | A (0%≤ substrate protein remaining % ≤80%) |  | A (0%≤ substrate protein remaining % ≤80%) |  |  | A (0%≤ substrate protein remaining % ≤80%)
< 500 | 100 to 500 |  |  | O=C1CCC(N2Cc3cc(OC4CCCN(C(=O)c5ccccc5-c5ccc(Cl)cc5)CC4)ccc3C2=O)C(=O)N1 (stereo not shown) [GT-06935, 3-(5-((1-(4′-chloro-[1,1′-biphenyl]-2-carbonyl)azepan-4-yl)oxy)-1-oxoisoindolin-2-yl)piperidine-2,6-dione] |  |  | A (0%≤ substrate protein remaining % ≤80%) | A (0%≤ substrate protein remaining % ≤80%) |  | A (0%≤ substrate protein remaining % ≤80%)
500 to 1000 | 1 to 10 |  |  | O=C1CCC(N2Cc3cc(SC4CCN(C(=O)c5ccccc5-c5ccc(Cl)cc5)CC4(F)F)ccc3C2=O)C(=O)N1 (stereo not shown) [GT-06925, 3-(5-((1-(4′-chloro-[1,1′-biphenyl]-2-carbonyl)-3,3-difluoropiperidin-4-yl)thio)-1-oxoisoindolin-2-yl)piperidine-2,6-dione] | A (0%≤ substrate protein remaining % ≤80%) | A (0%≤ substrate protein remaining % ≤80%) | A (0%≤ substrate protein remaining % ≤80%) | A (0%≤ substrate protein remaining % ≤80%) | A (0%≤ substrate protein remaining % ≤80%) | A (0%≤ substrate protein remaining % ≤80%)
< 500 | 100 to 500 |  |  | O=C1CCC(N2Cc3cc(OC4CCCN(Cc5ccccc5-c5ccc(Cl)cc5)CC4)ccc3C2=O)C(=O)N1 (stereo not shown) [GT-06934, 3-(5-((1-((4′-chloro-[1,1′-biphenyl]-2-yl)methyl)azepan-4-yl)oxy)-1-oxoisoindolin-2-yl)piperidine-2,6-dione] |  |  | A (0%≤ substrate protein remaining % ≤80%) | A (0%≤ substrate protein remaining % ≤80%) | A (0%≤ substrate protein remaining % ≤80%) | 
